Values quoted from earlier work in article PMC6644309 (ACS Omega, 2018).
≈ marks a conversion by molar mass, not a printed value.

Experiments:
[1] = not given; remark: listed apart in the source
[2] = in vivo

pKa, benzimidazole (basic) group, first: 4.1
pKa, benzimidazole (basic) group, second: 6.0
pKa, carboxylic (acidic) group: 3.5
solubility in water ([1]; in water): 0.09 µg/mL (≈ 0.175 µM)
solubility at pH 3–7 (in words) ([1]; pH 3–7, physiological pH): practically insoluble
bioavailability [2]: 42–58%
SMILES: CCCc1nc2c(C)cc(-c3nc4ccccc4n3C)cc2n1Cc1ccc(-c2ccccc2C(=O)O)cc1 [TLM, 2-[4-[[4-methyl-6-(1-methylbenzimidazol-2-yl)-2-propylbenzimidazol-1-yl]methyl]phenyl]benzoic acid]
